A flash point compilation (Sun et al. 2020)

Row | SMILES | flash point [°C]
1 | CC(=O)Cl [acetyl chloride] | 4.00
2 | CC(O)CN(CC(C)O)CC(C)O (stereo not drawn) [1-[bis(2-hydroxypropyl)amino]propan-2-ol] | 160.00
3 | CCCCOC(=O)c1ccccc1C(=O)OCc1ccccc1 [2-O-benzyl 1-O-butyl benzene-1,2-dicarboxylate] | 199.00
4 | Cc1ccc(C(C)C)c(O)c1 [5-methyl-2-propan-2-ylphenol] | 110.00
5 | c1ccc2c(c1)Nc1ccccc1S2 [10H-phenothiazine] | 202.00
6 | Cc1ccccc1C#N [2-methylbenzonitrile] | 84.00
7 | CCCCCCCCCCCCCCCCCC[Si](Cl)(Cl)Cl [trichloro(octadecyl)silane] | 89.00
8 | CCCOC(C)=O [propyl acetate] | 14.00
9 | CCCNCCC [N-propylpropan-1-amine] | 17.00
10 | C=Cc1ccccc1C=C [1,2-bis(ethenyl)benzene] | 62.00
11 | CCCCCC1OC1CC1OC1CCCCCCCC(=O)OCC(COC(=O)CCCCCCCC1OC1CC1OC1CCCCC)OC(=O)CCCCCCCC1OC1CC1OC1CCCCC (stereo not drawn) | 307.00
12 | Cc1cc(C)c(C)cc1C [1,2,4,5-tetramethylbenzene] | 54.00
13 | C=CC/C=C/C [(4E)-hexa-1,4-diene] | -21.00
14 | C/C=C/c1ccc(OC)cc1 [1-methoxy-4-[(E)-prop-1-enyl]benzene] | 91.00
15 | Oc1c(Cl)ccc(Cl)c1Cl [2,3,6-trichlorophenol] | 79.00
16 | CC(C)C(C)O (stereo not drawn) [3-methylbutan-2-ol] | 33.00
17 | CCCCC(CC)Cc1c(C(=O)OOOC(=O)c2cc(O)c(O)c(O)c2)cc(O)c(O)c1O (stereo not drawn) | 232.00
18 | COC(C)COC(C)CO (stereo not drawn) [2-(2-methoxypropoxy)propan-1-ol] | 74.00
19 | CCCCOP(=O)(CCCC)OCCCC [1-[butoxy(butyl)phosphoryl]oxybutane] | 154.00
20 | NCCN [ethane-1,2-diamine] | 34.00
21 | CCCC=NO [N-butylidenehydroxylamine] | 58.00
22 | S=C1NCCN1 [imidazolidine-2-thione] | 252.00
23 | O=Cc1ccc(Cl)cc1 [4-chlorobenzaldehyde] | 88.00
24 | CCCCOC(=O)CCCCC(=O)OCCCC [dibutyl hexanedioate] | 113.00
25 | OCCOCc1ccccc1 [2-phenylmethoxyethanol] | 129.00
26 | O=S1(=O)CC=CC1 [2,5-dihydrothiophene 1,1-dioxide] | 113.00

Row | SMILES | flash point [°C]
27 | COC(=O)c1ccccc1C(=O)OC [dimethyl benzene-1,2-dicarboxylate] | 146.00
28 | CCCCCOC(C)=O [pentyl acetate] | 33.00
29 | CCCCC(CC)C(=O)O (stereo not drawn) [2-ethylhexanoic acid] | 127.00
30 | CCC(=O)C(C)=O [pentane-2,3-dione] | 19.00
31 | C=CC[Si](Cl)(Cl)Cl [trichloro(prop-2-enyl)silane] | 35.00
32 | CC1CO1 (stereo not drawn) [2-methyloxirane] | -37.00
33 | Cc1nn(C)c(Oc2ccccc2)c1/C=N/OCc1ccc(C(=O)OC(C)(C)C)cc1 | 85.00
34 | Cc1ccc(N=C=O)cc1N=C=O [2,4-diisocyanato-1-methylbenzene] | 132.00
35 | O=c1ccc(=O)[nH][nH]1 [1,2-dihydropyridazine-3,6-dione] | 300.00
36 | Cc1ccc(N(C)C)cc1 [N,N,4-trimethylaniline] | 76.00
37 | CC(C)CC=O [3-methylbutanal] | 13.00
38 | CCOP(=S)(OCC)SCSC(C)(C)C | 88.00
39 | c1ccc(-c2cccc(-c3ccccc3)c2)cc1 [1,3-diphenylbenzene] | 191.00
40 | O=[N+]([O-])c1ccccc1C(F)(F)F [1-nitro-2-(trifluoromethyl)benzene] | 96.00
41 | Nc1ccc(Cl)cc1Cl [2,4-dichloroaniline] | 115.00
42 | C=CCc1ccc(OC)cc1 [1-methoxy-4-prop-2-enylbenzene] | 81.00
43 | C=CC(=O)OCC(C)C [2-methylpropyl prop-2-enoate] | 30.00
44 | CCCCCCCCCCCCCCCCCCN [octadecan-1-amine] | 149.00
45 | CN(C)P(=O)(N(C)C)N(C)C [N-[bis(dimethylamino)phosphoryl]-N-methylmethanamine] | 106.00
46 | Nc1ccc(Cc2ccc(N)cc2)cc1 [4-[(4-aminophenyl)methyl]aniline] | 221.00
47 | c1ccccc1 [benzene] | -11.00
48 | CCN(C)N=O [N-ethyl-N-methylnitrous amide] | 76.00
49 | c1cc2c3c(cccc3c1)CC2 [1,2-dihydroacenaphthylene] | 125.00
50 | NC(=O)CCl [2-chloroacetamide] | 170.00
51 | CC1=CC(C)(C)Nc2ccccc21 [2,2,4-trimethyl-1H-quinoline] | 101.00
52 | Cl.O=C(O)CCP(CCC(=O)O)CCC(=O)O | 202.00

Row | SMILES | flash point [°C]
53 | C=CCOC(=O)COCCC(C)C [prop-2-enyl 2-(3-methylbutoxy)acetate] | 68.00
54 | C=C1CCC=C(C)CC[C@@H]2[C@@H]1CC2(C)C | 101.00
55 | CC(=O)CCC(C)=O [hexane-2,5-dione] | 79.00
56 | CC(C)CCCCCCCO [8-methylnonan-1-ol] | 104.00
57 | Cl[Si](Cl)(c1ccccc1)c1ccccc1 [dichloro(diphenyl)silane] | 142.00
58 | ClCc1ccccc1 [chloromethylbenzene] | 67.00
59 | Cc1cc(C(C)(C)C)c(O)c(C(C)(C)C)c1 [2,6-ditert-butyl-4-methylphenol] | 127.00
60 | CCCCS [butane-1-thiol] | 13.00
61 | CCCCCCCCC=O [nonanal] | 83.00
62 | Cc1cccc(F)c1 [1-fluoro-3-methylbenzene] | 9.00
63 | Oc1c(Cl)cc(Cl)cc1Cl [2,4,6-trichlorophenol] | 99.00
64 | CC(C)C(=O)OC(=O)C(C)C [2-methylpropanoyl 2-methylpropanoate] | 59.00
65 | C=CC(=O)OCCCC [butyl prop-2-enoate] | 49.00
66 | NC=O [formamide] | 154.00
67 | NCCOCCO [2-(2-aminoethoxy)ethanol] | 127.00
68 | Nc1ccc([N+](=O)[O-])cc1[N+](=O)[O-] [2,4-dinitroaniline] | 224.00
69 | C=CC=CC [penta-1,3-diene] | -28.00
70 | C=CC(=O)OCC1CO1 (stereo not drawn) [oxiran-2-ylmethyl prop-2-enoate] | 61.00
71 | CCCCOB(OCCCC)OCCCC [tributyl borate] | 93.00
72 | CCCCC(CC)CO (stereo not drawn) [2-ethylhexan-1-ol] | 81.00
73 | ClC=CCl [1,2-dichloroethene] | 4.00
74 | OCCCl [2-chloroethanol] | 60.00
75 | CC(=O)OC(C)CC(C)C (stereo not drawn) [4-methylpentan-2-yl acetate] | 45.00
76 | CCCCCCCCCCCCCOC(=O)c1ccccc1C(=O)OCCCCCCCCCCCCC [ditridecyl benzene-1,2-dicarboxylate] | 238.00
77 | CN(C)C(=O)Cl [N,N-dimethylcarbamoyl chloride] | 68.00
78 | ClNc1ccccc1 [N-chloroaniline] | 108.00

Row | SMILES | flash point [°C]
79 | Oc1cc(Cl)c(Cl)cc1Cl [2,4,5-trichlorophenol] | 133.00
80 | O=C1C=CCO1 [InChI=1S/C4H4O2/c5-4-2-1-3-6-4/h1-2H,3H2] | 101.00
81 | CCCCCC(=O)O [hexanoic acid] | 104.00
82 | CCCOC(=O)c1ccc(C(=O)OCCC)nc1 [dipropyl pyridine-2,5-dicarboxylate] | 93.00
83 | COP(=S)(OC)Oc1nc(Cl)c(Cl)cc1Cl | 182.00
84 | O=C=NC1CCCCC1 [isocyanatocyclohexane] | 49.00
85 | CCCCCCCCCCCCO [dodecan-1-ol] | 127.00
86 | Oc1ccccc1Cl [2-chlorophenol] | 64.00
87 | CCC(C)CO (stereo not drawn) [2-methylbutan-1-ol] | 50.00
88 | CCCOCC(C)O (stereo not drawn) [1-propoxypropan-2-ol] | 48.00
89 | CCC(OCCCOC)OC(C)=O (stereo not drawn) [1-(3-methoxypropoxy)propyl acetate] | 86.00
90 | CCc1ccccc1CC [1,2-diethylbenzene] | 57.00
91 | COC(=O)c1ccc(C(=O)OC)cc1 [dimethyl benzene-1,4-dicarboxylate] | 153.00
92 | CC1CNCC(C)O1 (stereo not drawn) [2,6-dimethylmorpholine] | 44.00
93 | C=COCC(C)C [1-ethenoxy-2-methylpropane] | -9.00
94 | Oc1ccccc1Br [2-bromophenol] | 42.00
95 | CCSC(=O)N(CC)C1CCCCC1 [S-ethyl N-cyclohexyl-N-ethylcarbamothioate] | 139.00
96 | Cc1ccc(F)cc1 [1-fluoro-4-methylbenzene] | 41.00
97 | Oc1ccc(Cl)c(Cl)c1Cl [2,3,4-trichlorophenol] | 62.00
98 | Fc1ccccc1 [fluorobenzene] | -15.00
99 | N#Cc1ccccc1 [benzonitrile] | 72.00
100 | O=CO [formic acid] | 69.00
101 | CCOCCC(=O)OCC [ethyl 3-ethoxypropanoate] | 59.00
102 | CC(C)(C)CO [2,2-dimethylpropan-1-ol] | 37.00
103 | Cc1ccc(C(C)(C)O)cc1 [2-(4-methylphenyl)propan-2-ol] | 96.00
